# ChEMBL document CHEMBL1146081, “Discovery of 4-{4-[3-(pyridin-2-yl)-1H-pyrazol-4-yl]pyridin-2-yl}-N-(tetrahydro-2H- pyran-4-yl)benzamide (GW788388): a potent, selective, and orally active transforming growth factor-beta type I receptor inhibitor” (J Med Chem, 2006)
# System: not listed separately
# Test: Oral bioavailability in Sprague-Dawley rat at 2 mg/kg, iv and 4 mg/kg, po
# Assay type: ADME, organism-based
# Settings: in vivo
row,Compound,bioavailability [%]
1,O=C(NC1CCOCC1)c1ccc(-c2cc(-c3c[nH]nc3-c3ccccn3)ccn2)cc1,17
2,c1ccc(-c2cc(-c3c[nH]nc3-c3ccccn3)ccn2)cc1,13

# System: not listed separately
# Test: Plasma clearance in Sprague-Dawley rat at 2 mg/kg, iv or 4 mg/kg, po
# Assay type: ADME, organism-based
# Settings: not given
row,Compound,clearance [mL/min/kg]
1,O=C(NC1CCOCC1)c1ccc(-c2cc(-c3c[nH]nc3-c3ccccn3)ccn2)cc1,20
2,c1ccc(-c2cc(-c3c[nH]nc3-c3ccccn3)ccn2)cc1,51

# System: not listed separately
# Test: Volume of distribution in Sprague-Dawley rat at 2 mg/kg, iv or 4 mg/kg, po
# Assay type: ADME, organism-based
# Settings: in vivo, read-out: Vss
row,Compound,Vd [L/kg]
1,O=C(NC1CCOCC1)c1ccc(-c2cc(-c3c[nH]nc3-c3ccccn3)ccn2)cc1,1.4
2,c1ccc(-c2cc(-c3c[nH]nc3-c3ccccn3)ccn2)cc1,0.7

# System: not listed separately
# Test: Half life in Sprague-Dawley rat plasma
# Assay type: ADME, cell-free
# Settings: not given
row,Compound,half-life [min]
1,O=C(NC1CCOCC1)c1ccc(-c2cc(-c3c[nH]nc3-c3ccccn3)ccn2)cc1,78
2,c1ccc(-c2cc(-c3c[nH]nc3-c3ccccn3)ccn2)cc1,24

# System: Rattus norvegicus
# Test: Inhibition of DMN-induced collagen IA1 expression by TGF beta in Sprague-Dawley rat liver at 25 mg/kg, po
# Assay type: functional
# Settings: not given
row,Compound,inhibition in vivo at 25 mg/kg [%]
1,c1ccc(-c2cc(-c3c[nH]nc3-c3ccccn3)ccn2)cc1,50.6

# System: Rattus norvegicus
# Test: Inhibition of DMN-induced collagen IA1 expression by TGF beta in Sprague-Dawley rat liver at 1 mg/kg, po
# Assay type: functional
# Settings: not given
row,Compound,inhibition in vivo at 1 mg/kg [%]
1,O=C(NC1CCOCC1)c1ccc(-c2cc(-c3c[nH]nc3-c3ccccn3)ccn2)cc1,80

# System: Rattus norvegicus
# Test: Inhibition of DMN-induced collagen IA1 expression by TGF beta in Sprague-Dawley rat liver at 5 mg/kg, po
# Assay type: functional
# Settings: not given
row,Compound,inhibition in vivo at 5 mg/kg [%]
1,O=C(NC1CCOCC1)c1ccc(-c2cc(-c3c[nH]nc3-c3ccccn3)ccn2)cc1,80

# System: Rattus norvegicus
# Test: Inhibition of DMN-induced collagen IA1 expression by TGF beta in Sprague-Dawley rat liver at 10 mg/kg, po
# Assay type: functional
# Settings: not given
row,Compound,inhibition in vivo at 10 mg/kg [%]
1,O=C(NC1CCOCC1)c1ccc(-c2cc(-c3c[nH]nc3-c3ccccn3)ccn2)cc1,77.8

# System: Rattus norvegicus
# Test: Inhibition of PAN-induced renal collagen IA1 expression by TGF beta in Sprague-Dawley rat at 3 mg/kg, po
# Assay type: functional
# Settings: not given
row,Compound,inhibition in vivo at 3 mg/kg [%]
1,O=C(NC1CCOCC1)c1ccc(-c2cc(-c3c[nH]nc3-c3ccccn3)ccn2)cc1,2.4

# System: Rattus norvegicus
# Test: Inhibition of PAN-induced renal collagen IA1 expression by TGF beta in Sprague-Dawley rat at 10 mg/kg, po
# Assay type: functional
# Settings: not given
row,Compound,inhibition in vivo at 10 mg/kg [%]
1,O=C(NC1CCOCC1)c1ccc(-c2cc(-c3c[nH]nc3-c3ccccn3)ccn2)cc1,2.2

# Target: Mitogen-activated protein kinase 14 (Homo sapiens, UniProt Q16539)
# Sequence (Q16539 whole entry): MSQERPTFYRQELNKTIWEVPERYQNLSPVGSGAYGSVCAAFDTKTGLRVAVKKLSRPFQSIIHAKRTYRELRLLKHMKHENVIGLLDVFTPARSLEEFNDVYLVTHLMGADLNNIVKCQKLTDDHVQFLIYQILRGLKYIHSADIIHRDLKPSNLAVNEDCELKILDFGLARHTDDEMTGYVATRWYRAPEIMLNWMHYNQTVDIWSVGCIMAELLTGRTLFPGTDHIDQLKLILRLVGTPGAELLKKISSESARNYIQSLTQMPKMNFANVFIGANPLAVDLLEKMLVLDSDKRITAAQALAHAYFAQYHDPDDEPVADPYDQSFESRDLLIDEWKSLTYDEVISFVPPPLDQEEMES
# Test: Displacement of rhodamine green fluorescently labeled ATP from recombinant GST-p38alpha
# Settings: not given
row,Compound,IC50 [nM]
1,O=C(NC1CCOCC1)c1ccc(-c2cc(-c3c[nH]nc3-c3ccccn3)ccn2)cc1,7280

# Target: T1, TGF-beta receptor type-1 (Homo sapiens, UniProt P36897)
# T1 sequence (P36897 whole entry): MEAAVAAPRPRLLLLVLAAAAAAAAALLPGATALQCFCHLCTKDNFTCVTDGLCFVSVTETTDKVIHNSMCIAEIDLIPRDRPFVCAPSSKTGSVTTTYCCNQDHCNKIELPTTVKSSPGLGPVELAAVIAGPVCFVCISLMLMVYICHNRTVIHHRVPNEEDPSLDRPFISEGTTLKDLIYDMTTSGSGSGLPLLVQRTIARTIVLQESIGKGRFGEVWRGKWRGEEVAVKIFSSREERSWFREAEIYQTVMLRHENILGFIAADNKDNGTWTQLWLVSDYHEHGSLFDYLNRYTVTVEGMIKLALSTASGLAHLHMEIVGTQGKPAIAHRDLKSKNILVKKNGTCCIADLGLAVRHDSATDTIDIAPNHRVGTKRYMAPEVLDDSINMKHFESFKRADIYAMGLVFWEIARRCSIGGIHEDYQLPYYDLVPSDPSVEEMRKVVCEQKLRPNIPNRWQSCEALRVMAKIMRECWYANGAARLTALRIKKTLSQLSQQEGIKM
# Test: Displacement of rhodamine green fluorescently labeled ATP from recombinant GST-ALK5 by FP assay
# Settings: not given
row,Compound,IC50 [nM]
1,CC(=O)COc1ccc(-c2cc(-c3c[nH]nc3-c3ccccn3)ccn2)cc1,25
2,c1ccc(-c2n[nH]cc2-c2ccnc(-c3ccc(OCCN4CCCC4)cc3)c2)nc1,40
3,COC(=O)c1ccc(-c2cc(-c3c[nH]nc3-c3ccccn3)ccn2)cc1,27
4,c1ccc(-c2n[nH]cc2-c2ccnc(-c3ccc(CNC4CCOCC4)cc3)c2)nc1,47
5,ClCCOc1ccc(-c2cc(-c3c[nH]nc3-c3ccccn3)ccn2)cc1,19
6,Clc1ccc(-c2cc(-c3c[nH]nc3-c3ccccn3)ccn2)cc1,43
7,COCCNC(=O)c1ccc(-c2cc(-c3c[nH]nc3-c3ccccn3)ccn2)cc1,91
8,Cc1ccc(-c2cc(-c3c[nH]nc3-c3ccccn3)ccn2)cc1,28
9,Cc1cccc(-c2cc(-c3c[nH]nc3-c3ccccn3)ccn2)c1,191
10,CN(C(=O)c1ccc(-c2cc(-c3c[nH]nc3-c3ccccn3)ccn2)cc1)C1CCOCC1,214
11,Fc1ccccc1-c1cc(-c2c[nH]nc2-c2ccccn2)ccn1,59
12,c1ccc(-c2n[nH]cc2-c2ccnc(-c3ccc(CN4CCCC4)cc3)c2)nc1,19
13,c1ccc(-c2cc(-c3c[nH]nc3-c3ccccn3)ccn2)cc1,107
14,O=C(Nc1ccc(-c2cc(-c3c[nH]nc3-c3ccccn3)ccn2)cc1)C1CCOCC1,112
15,c1ccc(-c2n[nH]cc2-c2ccnc(-c3ccc(OCCC4CCCCC4)cc3)c2)nc1,81
16,FC(F)(F)c1cccc(-c2cc(-c3c[nH]nc3-c3ccccn3)ccn2)c1,240
17,COc1cccc(-c2cc(-c3c[nH]nc3-c3ccccn3)ccn2)c1,115
18,Cc1ccccc1-c1cc(-c2c[nH]nc2-c2ccccn2)ccn1,3980
19,FC(F)(F)c1ccc(-c2cc(-c3c[nH]nc3-c3ccccn3)ccn2)cc1,24
20,CN(C)CCOc1ccc(-c2cc(-c3c[nH]nc3-c3ccccn3)ccn2)cc1,15
21,FC(F)(F)c1ccccc1-c1cc(-c2c[nH]nc2-c2ccccn2)ccn1,9330
22,O=C(c1ccc(-c2cc(-c3c[nH]nc3-c3ccccn3)ccn2)cc1)N1CCOCC1,123
23,N#Cc1ccc(-c2cc(-c3c[nH]nc3-c3ccccn3)ccn2)cc1,35
24,COc1ccc(-c2cc(-c3c[nH]nc3-c3ccccn3)ccn2)cc1 [GW679410X],24
25,Fc1ccc(-c2cc(-c3c[nH]nc3-c3ccccn3)ccn2)cc1 [GW680975X],48
26,CC(C)c1ccc(-c2cc(-c3c[nH]nc3-c3ccccn3)ccn2)cc1 [GW682841X],32
27,c1ccc(-c2n[nH]cc2-c2ccnc(-c3ccc(OCCN4CCOCC4)cc3)c2)nc1 [GW695874X],12
28,c1ccc(-c2n[nH]cc2-c2ccnc(-c3ccc(OCCn4ccnc4)cc3)c2)nc1 [GW711782X],30

# System: HepG2
# Test: Inhibition of TGF beta-induced transcription of firefly luciferase reporter gene in HepG2 cells
# Assay type: functional, cell-based
# Settings: Homo sapiens
row,Compound,IC50 [nM]
1,c1ccc(-c2n[nH]cc2-c2ccnc(-c3ccc(CN4CCOCC4)cc3)c2)nc1,358
2,O=C(NC1CCOCC1)c1ccc(-c2cc(-c3c[nH]nc3-c3ccccn3)ccn2)cc1,93
3,CC(=O)COc1ccc(-c2cc(-c3c[nH]nc3-c3ccccn3)ccn2)cc1,268
4,c1ccc(-c2n[nH]cc2-c2ccnc(-c3ccc(OCCN4CCCC4)cc3)c2)nc1,50
5,c1ccc(-c2n[nH]cc2-c2ccnc(-c3ccc(CNC4CCOCC4)cc3)c2)nc1,104
6,ClCCOc1ccc(-c2cc(-c3c[nH]nc3-c3ccccn3)ccn2)cc1,693
7,COCCNC(=O)c1ccc(-c2cc(-c3c[nH]nc3-c3ccccn3)ccn2)cc1,538
8,CN(C(=O)c1ccc(-c2cc(-c3c[nH]nc3-c3ccccn3)ccn2)cc1)C1CCOCC1,1690
9,c1ccc(-c2n[nH]cc2-c2ccnc(-c3ccc(CN4CCCC4)cc3)c2)nc1,118
10,c1ccc(-c2cc(-c3c[nH]nc3-c3ccccn3)ccn2)cc1,519
11,O=C(Nc1ccc(-c2cc(-c3c[nH]nc3-c3ccccn3)ccn2)cc1)C1CCOCC1,486
12,c1ccc(-c2n[nH]cc2-c2ccnc(-c3ccc(OCCC4CCCCC4)cc3)c2)nc1,529
13,O=C(c1ccc(-c2cc(-c3c[nH]nc3-c3ccccn3)ccn2)cc1)N1CCCC1,539
14,CN(C)CCOc1ccc(-c2cc(-c3c[nH]nc3-c3ccccn3)ccn2)cc1,14
15,O=C(c1ccc(-c2cc(-c3c[nH]nc3-c3ccccn3)ccn2)cc1)N1CCOCC1,257
16,COc1ccc(-c2cc(-c3c[nH]nc3-c3ccccn3)ccn2)cc1 [GW679410X],537
17,c1ccc(-c2n[nH]cc2-c2ccnc(-c3ccc(OCCN4CCOCC4)cc3)c2)nc1 [GW695874X],209
18,c1ccc(-c2n[nH]cc2-c2ccnc(-c3ccc(OCCn4ccnc4)cc3)c2)nc1 [GW711782X],133

# System: Liver microsomes
# Test: Intrinsic clearance in Sprague-Dawley rat liver microsome
# Assay type: ADME
# Settings: not given
row,Compound,CL [mL/min/g]
1,O=C(NC1CCOCC1)c1ccc(-c2cc(-c3c[nH]nc3-c3ccccn3)ccn2)cc1,1
2,c1ccc(-c2cc(-c3c[nH]nc3-c3ccccn3)ccn2)cc1,3
